Results published in patent US10562912B2 (C&C Research Laboratories, priority 2013, dated 2020).

Columns and labels:
Type in all cases: cell-based
LNCaP = assay: Cell growth inhibition assay, prostate cancer cell line LNCaP (medium with 10 ng/mL IL-6); settings: Homo sapiens, medium supplemented with 10 ng/mL of IL-6, 10,000 cells/well
DU-145 = assay: Cell growth inhibition assay, prostate cancer cell line DU-145; settings: Homo sapiens, DU-145 prostate cancer cell line
In short: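 Seed DU-145/HCT116 3,000 cells/well, SW626 5,000 cells/well; add compound dilution series; incubate 72–96 h, 37° C., 5% CO2; microscope check for precipitate; CellTiter-Glo, luminescence. Blank = no cells; vehicle = 0.1% DMSO.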

STAT3 = target: T1, STAT3 (Homo sapiens, UniProt P40763); assay: STAT3 reporter gene assay (luciferase), LNCaP stable cell line (pSTAT3-TA-luc), IL-6 stimulation
T1 construct: plasmid pSTAT3-TA-luc), which contains a stably operating STAT3 promoter; endogenous in cells
In short: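 Cytotoxicity was run on a duplicate plate with CellTiter-Glo, while the other plate gave luciferase read-outs from lysed LNCaP pSTAT3-TA-luc reporter cells. Cells were treated with graded compound concentrations plus IL-6 (10 ng/mL final) for 24–48 h in 3% DCC-FBS medium. Unstimulated and stimulated wells served as negative and positive controls.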

MDA-MB-231 = assay: Cell growth inhibition assay, breast cancer cell line MDA-MB-231; settings: Homo sapiens; MDA-MB-231 breast cancer cell line, 5,000 cells/well
HEL92.1.7 = assay: Cell growth inhibition assay, blood cancer cell line HEL92.1.7; settings: Homo sapiens, HEL 92.1.7, HEL92.1.7 blood cancer cell line
Description: The inhibitory effects of the compounds of the present invention against the growth of cancer cells were evaluated as shown below. The cancer cell lines including stomach cancer cell line (AGS), breast cancer cell lines (MDA-MB-231, MDA-MB-468, and BT-549), prostate cancer cell lines (LNCaP and DU-145), colon cancer cell line (HCT116), ovarian cancer cell line (SW626), liver cancer cell line (Hep3B), kidney cancer cell line (ACHN), lung cancer cell line (NCI-H23) and blood cancer cell lines (HEL92.1.7 and U266) were cultured under the protocol provided by each supplier. A medium supplemented with 10 ng/mL of IL-6 was used for LNCaP, a prostate cancer cell line, when treated with a drug. Each type of cells to be used in experiments were sub-cultured in a 96-well plate by counting the exact number of cells using Tali™ Image-based Cytometer (Life Technologies). In a 96-well plate, AGS, HCT116, and DU-145 were employed with 3,000 cells/well; NCI-H23, SW626, Hep3B, ACHN, BT-549, MDA-MB-231, HEL92.1.7, and U266 were employed with 5,000 cells/well; and LNCaP and MDA-MB-468 were employed with 10,000 cells/well. The cells were treated with the compounds listed in Examples which were diluted in various concentrations. Upon completion of the compounds treatment, AGS, HCT116, SW626, DU145, NCI-H23, Hep3B, ACHN, BT-549, LNCaP, HEL92.1.7, and U266 cells were cultured at 37° C. under 5% CO2 for from 72 to 96 hours, and MDA-MB-231 and MDA-MB-468 cells were cultured at 37° C. in air for from 72 to 96 hours. Subsequently, the cells were observed under microscope and drug precipitation and particular findings were investigated and recorded. And then, the 96-well plate was placed at room temperature for 30 minutes, added with 20 μL/well of CellTiter-Glo solution (Cat No. G7573, Promega) and shaken for 10 minutes, followed by being subjected to the measurement using PHERAstar™ microplate reader (BMG LABTECH) according to the supplier's general luminometer protocol. Wells where only culture liquid added without cell plating were used as a negative control, whereas wells where culture liquid containing 0.1% DMSO instead of the compounds listed in Examples were used as a positive control.

T1 sequence (P40763 whole entry): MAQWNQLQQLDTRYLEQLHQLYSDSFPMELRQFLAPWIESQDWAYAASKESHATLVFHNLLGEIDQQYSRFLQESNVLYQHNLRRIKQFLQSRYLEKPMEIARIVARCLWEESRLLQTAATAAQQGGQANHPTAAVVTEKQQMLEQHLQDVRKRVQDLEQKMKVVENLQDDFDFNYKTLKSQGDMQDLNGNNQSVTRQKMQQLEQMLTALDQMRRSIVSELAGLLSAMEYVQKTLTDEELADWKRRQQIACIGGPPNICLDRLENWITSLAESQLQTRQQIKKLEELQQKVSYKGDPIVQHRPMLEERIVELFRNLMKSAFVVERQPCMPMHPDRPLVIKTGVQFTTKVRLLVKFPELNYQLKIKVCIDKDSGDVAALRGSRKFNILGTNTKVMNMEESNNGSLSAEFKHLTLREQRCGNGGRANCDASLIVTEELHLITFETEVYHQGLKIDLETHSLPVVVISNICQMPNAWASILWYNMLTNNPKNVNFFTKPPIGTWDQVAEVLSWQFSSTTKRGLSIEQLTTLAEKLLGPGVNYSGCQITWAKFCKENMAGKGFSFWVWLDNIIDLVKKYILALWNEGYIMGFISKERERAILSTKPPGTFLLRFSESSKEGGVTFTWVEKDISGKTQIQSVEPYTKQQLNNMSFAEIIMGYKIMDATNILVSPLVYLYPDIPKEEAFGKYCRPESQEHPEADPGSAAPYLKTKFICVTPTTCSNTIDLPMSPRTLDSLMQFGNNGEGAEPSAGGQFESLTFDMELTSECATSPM

SMILES	IC50 (LNCaP) [µM]	IC50 (DU-145) [µM]	IC50 (STAT3) [µM]	IC50 (MDA-MB-231) [µM]	IC50 (HEL92.1.7) [µM]
COc1cc2cc(C(=O)Nc3cc(Br)cc(C(C)(C)c4ccc(F)cc4)c3)[nH]c2cc1NS(C)(=O)=O [Example 19, N-(3-bromo-5-(2-(4-fluorophenyl)propan-2-yl)phenyl)-5-methoxy-6-(methylsulfonamido)-1H-indole-2-carboxamide]	0.52	0.15	0.12	0.088	–
CC(C)(c1ccc(F)cc1)c1cc(Cl)cc(NC(=O)c2cc3ccc(NS(C)(=O)=O)cc3[nH]2)c1 [Example 21, N-(3-chloro-5-(2-(4-fluorophenyl)propan-2-yl)phenyl)-6-(methylsulfonamido)-1H-indole-2-carboxamide]	0.9	0.19	0.22	0.054	–
CC(C)(c1ccc(F)cc1)c1cc(Br)cc(NC(=O)c2cc3cc(NS(C)(=O)=O)ccc3s2)c1 [Example 32, N-(3-bromo-5-(2-(4-fluorophenyl)propan-2-yl)phenyl)-5-(methylsulfonamido)benzo[b]thiophene-2-carboxamide]	0.15	0.044	0.034	0.021	–
COc1cc(OC(F)(F)F)cc(C(C)(C)c2cccc(NC(=O)c3cc4cc(NS(C)(=O)=O)ccc4s3)c2)c1 [Example 33, N-(3-(2-(3-methoxy-5-(trifluoromethoxy)phenyl)propan-2-yl)phenyl)-5-(methylsulfonamido)benzo[b]thiophene-2-carboxamide]	0.15	0.037	0.035	0.003	–
CC(C)(c1cc(Br)cc(NC(=O)c2cc3cc(NS(C)(=O)=O)ccc3s2)c1)c1cccc(OCC(N)=O)c1 [Example 43, N-(3-(2-(3-(2-amino-2-oxoethoxy)phenyl)propan-2-yl)-5-bromophenyl)-5-(methylsulfonamido)benzo[b]thiophene-2-carboxamide]	5.8	4.9	2.7	3.6	–
CCC(CC)(c1cc(NC(=O)c2cc3cc(NS(C)(=O)=O)ccc3s2)cc(OC)c1)c1cc(OC)cc(OC(F)(F)F)c1 [Example 54, N-(3-methoxy-5-(3-(3-methoxy-5-(trifluoromethoxy)phenyl)pentan-3-yl)phenyl)-5-(methylsulfonamido)benzo[b]thiophene-2-carboxamide]	0.17	0.046	0.048	0.036	–
CC(C)(c1ccccc1)c1cc(Cl)cc(NC(=O)c2cc3cc(NS(C)(=O)=O)ccc3s2)c1 [Example 64, N-(3-chloro-5-(2-phenylpropan-2-yl)phenyl)-5-(methylsulfonamido)benzo[b]thiophene-2-carboxamide]	0.1	0.043	0.065	–	0.11
CC(C)Oc1cc(OC(F)(F)F)cc(C(C)(C)c2cc(Cl)cc(NC(=O)c3cc4c(N5CCOCC5)c(NS(C)(=O)=O)ccc4s3)c2)c1 [Example 66, N-(3-chloro-5-(2-(3-isopropoxy-5-(trifluoromethoxy)phenyl)propan-2-yl)phenyl)-5-(methylsulfonamido)-4-morpholinobenzo[b]thiophene-2-carboxamide]	> 1.1	> 1.1	> 10	–	> 1.1
COc1cc(F)cc(C(C)(C)c2cc(Cl)cc(NC(=O)c3cc4cc(NS(C)(=O)=O)ccc4s3)c2)c1 [Example 67, N-(3-chloro-5-(2-(3-fluoro-5-methoxyphenyl)propan-2-yl)phenyl)-5-(methylsulfonamido)benzo[b]thiophene-2-carboxamide]	0.037	0.042	0.067	–	0.11
CC(C)Oc1cc(OC(F)(F)F)cc(C(C)(C)c2cc(Cl)cc(NC(=O)c3nc4cc(NS(C)(=O)=O)ccc4s3)c2)c1 [Example 81, N-(3-chloro-5-(2-(3-isopropoxy-5-(trifluoromethoxy)phenyl)propan-2-yl)phenyl)-5-(methylsulfonamido)benzo[d]thiazole-2-carboxamide]	0.15	0.11	0.055	–	0.34
CC(C)(c1cc(Cl)cc(NC(=O)c2cc3cc(NS(C)(=O)=O)ccc3s2)c1)c1cc(OCC(F)F)cc(OC(F)(F)F)c1 [Example 83, N-(3-chloro-5-(2-(3-(2,2-difluoroethoxy)-5-(trifluoromethoxy)phenyl)propan-2-yl)phenyl)-5-(methylsulfonamido)benzo[b]thiophene-2-carboxamide]	0.025	0.012	0.023	–	0.1
CN1CCN(Cc2cccc(C(C)(C)c3cc(Br)cc(NC(=O)c4cc5cc(NS(C)(=O)=O)ccc5s4)c3)c2)CC1 [Example 115, N-(3-bromo-5-(2-(3-((4-methylpiperazin-1-yl)methyl)phenyl)propan-2-yl)phenyl)-5-(methylsulfonamido)benzo[b]thiophene-2-carboxamide]	5.6	1.7	2.5	1.5	–
CC(C)(C)OC(=O)N1CCN(Cc2cccc(C(C)(C)c3cc(Br)cc(NC(=O)c4cc5ccc(NS(C)(=O)=O)cc5[nH]4)c3)c2)CC1 [Example 117, tert-butyl 4-(3-(2-(3-bromo-5-(6-(methylsulfonamido)-1H-indole-2-carboxamido)phenyl)propan-2-yl)benzyl)piperazine-1-carboxylate]	2.6	1.2	0.23	2.2	–
CS(=O)(=O)Nc1ccc2sc(C(=O)Nc3cc(Br)cc(C4(c5ccc(F)cc5F)CC4)c3)cc2c1 [Example 426, N-(3-bromo-5-(1-(2,4-difluorophenyl)cyclopropyl)phenyl)-5-(methylsulfonamido)benzo[b]thiophene-2-carboxamide]	0.3	0.13	0.082	0.074	–
CS(=O)(=O)Nc1ccc2sc(C(=O)Nc3cc(OC(F)F)cc(C4(c5ccc(F)cc5)CC4)c3)cc2c1 [Example 429, N-(3-(difluoromethoxy)-5-(1-(4-fluorophenyl)cyclopropyl)phenyl)-5-(methylsulfonamido)benzo[b]thiophene-2-carboxamide]	0.35	–	0.19	0.086	–
CS(=O)(=O)Nc1ccc2cc(C(=O)Nc3cccc(C(=O)c4ccccc4)c3)[nH]c2c1 [Example 434, N-(3-benzoylphenyl)-6-(methylsulfonamido)-1H-indole-2-carboxamide]	> 10	–	6.5	2.9	–
CC(O)(c1ccccc1)c1cccc(NC(=O)c2cc3ccc(NS(C)(=O)=O)cc3[nH]2)c1 (centres unmarked) [Example 435, N-(3-(1-hydroxy-1-phenylethyl)phenyl)-6-(methylsulfonamido)-1H-indole-2-carboxamide]	> 10	–	5.8	4.3	–
CC(C)(c1cccc(NC(=O)c2cc3ccc(N(CC(N)=O)S(C)(=O)=O)cc3[nH]2)c1)c1cc(O)cc(OC(F)(F)F)c1 [Example 436, 6-(N-(2-amino-2-oxoethyl)methylsulfonamido)-N-(3-(2-(3-hydroxy-5-(trifluoromethoxy)phenyl)propan-2-yl)phenyl)-1H-indole-2-carboxamide]	> 10	–	5.2	4.7	–
CC(C)(c1cccc(NC(=O)c2cc3ccc(N(CC(N)=O)S(C)(=O)=O)cc3[nH]2)c1)c1cc(OCC(N)=O)cc(OC(F)(F)F)c1 [Example 437, N-(3-(2-(3-(2-amino-2-oxoethoxy)-5-(trifluoromethoxy)phenyl)propan-2-yl)phenyl)-6-(N-(2-amino-2-oxoethyl)methylsulfonamido)-1H-indole-2-carboxamide]	> 10	–	6.3	> 10	–
